Molecular target: T1, FastPETase (mutant derived from IsPETase) (Pseudideonella sakaiensis, UniProt A0A0K8P6T7, S121E/D186H/R224Q/N233K/R280A, form not given)
T1 construct: gene ISF6_4831; engineered variant FastPETase; construct not described in the main text
Test: p-nitrophenol release at […] nm, Michaelis-Menten nonlinear fit
Assay type: biochemical
Conditions: 10 mM potassium phosphate pH 8.0 (stock buffer), 50 °C, 3 min, 0.5 µg/mL enzyme, 0.2-1.8 mM pNPB

T1 sequence (A0A0K8P6T7 28-290 S121E/D186H/R224Q/N233K/R280A, form open): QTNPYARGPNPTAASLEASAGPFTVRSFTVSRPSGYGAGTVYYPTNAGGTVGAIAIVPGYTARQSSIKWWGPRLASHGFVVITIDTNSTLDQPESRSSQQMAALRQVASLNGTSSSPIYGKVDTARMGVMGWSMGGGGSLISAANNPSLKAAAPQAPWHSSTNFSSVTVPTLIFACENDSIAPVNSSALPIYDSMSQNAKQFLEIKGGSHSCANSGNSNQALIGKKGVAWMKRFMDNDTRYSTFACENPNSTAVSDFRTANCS

Km: 1570 ± 416 µM
Compound: CCCC(=O)Oc1ccc([N+](=O)[O-])cc1 [p-nitrophenyl butyrate]

Reference: paper PMC12228687, “Harnessing protein language model for structure-based discovery of highly efficient and robust PET hydrolases” (Nature Communications, 2025)
